Experimental data published in PubChem BioAssay AID602164 (The Scripps Research Institute Molecular Screening Center, 2012).

test system: 2B4/Mcl-1 cells apoptosis, absorbance viability; test: apoptosis induction in Mcl-1-dependent versus Bcl-2 cells, late-stage follow-up, selectivity assay for MCL1-BIM inhibitor project, cell-based, absorbance, 2B4/Mcl1 vs 2B4/Bcl-2 (AID 602164)

Row | Compound | IC50 [µM]
1 | CC(C)Oc1ccc(C(Nc2ccccn2)c2ccc3cccnc3c2O)cc1 (stereo not drawn) | 2.3
2 | CCN1CCN(C(c2cccs2)c2ccc3cccnc3c2O)CC1 (stereo not drawn) | 3.8
3 | OCCN1CCN(C(c2cccs2)c2ccc3cccnc3c2O)CC1 (stereo not drawn) | 5.1
4 | Oc1c(C(c2cccs2)N2CCN(c3ccccn3)CC2)ccc2cccnc12 (stereo not drawn) | 3.7
5 | CN1CCN(C(c2ccc(F)cc2)c2ccc3cccnc3c2O)CC1 (stereo not drawn) | 4
6 | Cc1ccnc(NC(c2cccs2)c2ccc3cccnc3c2O)c1 (stereo not drawn) | 2.4
7 | Oc1c(C(Nc2ccccn2)c2cccs2)ccc2cccnc12 (stereo not drawn) | 3.1
8 | Oc1c(C(c2cccs2)N2CCCCC2)ccc2cccnc12 (stereo not drawn) | 4.4
